Experimental data reported in patent US12606561B2, “Substituted pyrazolo[1,5-a][1,3,5]triazines as CDK inhibitors” (QURIENT CO., LTD., priority 2018, dated 2026).

Tests used:
CDK1/Cyclin B = target: T1, CDK1/Cyclin B (Homo sapiens, UniProt P06493); experiment: Enzymatic assay for CDK1 (LANCE Ultra kinase assay, FRET based); format: biochemical; settings: ATP at Km; read-out: CDK1 enzymatic activity IC50
T1 construct: purchased Invitrogen PR4768C
Method in brief: (§1)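 Purified CDK7/Cyclin H/MNAT1 or CDK1/Cyclin B complexes were tested for inhibition at Km ATP. Phosphorylation of a ULight-labelled peptide was detected by FRET with a Europium anti-phospho antibody (LANCE Ultra).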

CDK7/Cyclin H/MNAT1 = target: T2, CDK7/Cyclin H/MNAT1 (Homo sapiens, UniProt P50613); experiment: Enzymatic assay for CDK7 (LANCE Ultra kinase assay, FRET based); format: biochemical; settings: for IC50: ATP at Km
T2 construct: purchased Invitrogen PR6749B
Method in brief: as §1

CDK5/p25 = target: T3, CDK5/p25 (Homo sapiens, UniProt Q00535); experiment: Enzymatic assay for CDK5 (LANCE Ultra kinase assay, FRET based); format: biochemical; settings: ATP at Km
T3 construct: purchased Invitrogen PR8543B
Method in brief: (§2)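 Compounds tested as 8 doses in 4-fold steps against CDK2/Cyclin A ([…]) or CDK5/p25 ([…]), with ATP at its Km and 68 nM ULight-MBP substrate. After 60 min at 23° C., EDTA plus Eu-labelled anti-phospho-MBP added; TR-FRET (615/665 nm) read after another 60 min.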

CDK2/Cyclin A = target: T4, CDK2/Cyclin A (Homo sapiens, UniProt P24941); experiment: Enzymatic assay for CDK2 (LANCE Ultra kinase assay, FRET based); format: biochemical; settings: ATP at Km
T4 construct: purchased Invitrogen PV6290
Method in brief: as §2

OVCAR-3 = OVCAR-3 viability assay (CellTiter-Glo, 72 hours); format: cell-based; settings: Homo sapiens; OVCAR-3 cells
Protocol: Human […] cell line, MV4-11_(ATCC, Cat #CRL-9591), NSCLC (Non-small cell lung cancer) cell line H460 (ATCC, Cat #HTB-177), A2780 (ECACC, Cat #93112519) and OVCAR-3(ATCC, Cat #HTB-161) were obtained from ATCC. Cells were grown in RPMI-1640 media (Invitrogen, Cat #22400-089) supplemented with 10% FBS (Invitrogen, Cat #10099141) and 1% penicillin/streptomycin (Invitrogen, Cat #15070063) and cultured at 37° C., 5% CO2 in a humidified chamber. All cell lines were routinely tested for mycoplasma.
To effect of the CDK7 inhibitor to inhibit the growth of target cancer cells, viability assay were conducted a 72 hour time period. Briefly, the candidate cell line was plated in 96 well plate at the following density of cells respectively. 1×10^4 cells/well for MV4-11, 5×10^3 for H460 and OVCAR-3, and 1×10^3 for A2780. After 24 hours, the cells were treated with various concentrations of the compound (ranging from 0.0015 uM to 10 uM). DMSO solvent without compound served as a control and final DMSO concentration lest than 0.1%. After 72 hours of incubation at 37° C., 5% CO2 incubator, cells were analyzed for the viability using the CellTiter-Glo Luminescent Cell Viability Assay (Promega, Cat #G7570). All viability assays were performed in duplicate and Luminescence was read using an Envision (Perkin Elmer, USA). Data was analyzed using XLfit software.

A2780 = A2780 viability assay (CellTiter-Glo, 72 hours); format: cell-based; settings: Homo sapiens; A2780 cells
Method in brief: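 CellTiter-Glo luminescence measured viability after 72 h of compound exposure (0.0015–10 uM; DMSO below 0.1%) at 37 °C, 5% CO2, run in duplicate. Dosing began 24 h post-seeding in RPMI-1640/10% FBS at 1×10^4 (MV4-11), 5×10^3 (OVCAR-3) or 1×10^3 (A2780) cells/well.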

T1 sequence (P06493 whole entry): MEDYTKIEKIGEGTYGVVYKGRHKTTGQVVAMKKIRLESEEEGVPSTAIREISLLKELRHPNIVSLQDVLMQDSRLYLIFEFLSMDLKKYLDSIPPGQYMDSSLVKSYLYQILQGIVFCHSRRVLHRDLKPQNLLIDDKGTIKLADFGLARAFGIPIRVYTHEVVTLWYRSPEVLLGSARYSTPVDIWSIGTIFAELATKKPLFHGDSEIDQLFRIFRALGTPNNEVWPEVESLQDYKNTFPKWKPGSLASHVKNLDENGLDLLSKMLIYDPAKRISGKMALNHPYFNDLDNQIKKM
T1 sequence (P14635 whole entry partner): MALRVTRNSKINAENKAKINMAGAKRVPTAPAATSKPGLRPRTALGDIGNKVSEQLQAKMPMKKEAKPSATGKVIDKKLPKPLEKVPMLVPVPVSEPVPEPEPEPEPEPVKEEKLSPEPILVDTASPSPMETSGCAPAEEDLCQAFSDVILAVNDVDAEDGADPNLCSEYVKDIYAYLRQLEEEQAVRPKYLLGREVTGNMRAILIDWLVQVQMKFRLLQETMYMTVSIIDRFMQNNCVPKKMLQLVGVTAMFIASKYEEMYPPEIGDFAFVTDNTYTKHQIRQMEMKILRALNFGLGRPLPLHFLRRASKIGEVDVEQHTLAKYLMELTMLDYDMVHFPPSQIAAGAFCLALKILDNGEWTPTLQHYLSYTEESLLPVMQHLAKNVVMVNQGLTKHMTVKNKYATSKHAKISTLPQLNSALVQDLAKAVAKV
T3 sequence (Q00535 whole entry): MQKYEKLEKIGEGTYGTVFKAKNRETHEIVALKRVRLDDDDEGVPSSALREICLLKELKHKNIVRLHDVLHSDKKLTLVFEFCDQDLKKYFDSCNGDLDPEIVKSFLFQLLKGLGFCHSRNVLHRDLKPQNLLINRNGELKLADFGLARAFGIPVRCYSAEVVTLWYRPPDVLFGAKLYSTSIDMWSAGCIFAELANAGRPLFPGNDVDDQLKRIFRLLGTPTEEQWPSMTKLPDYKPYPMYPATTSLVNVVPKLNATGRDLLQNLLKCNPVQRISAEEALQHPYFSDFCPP
T3 sequence (Q15078 99-307 partner limits assumed): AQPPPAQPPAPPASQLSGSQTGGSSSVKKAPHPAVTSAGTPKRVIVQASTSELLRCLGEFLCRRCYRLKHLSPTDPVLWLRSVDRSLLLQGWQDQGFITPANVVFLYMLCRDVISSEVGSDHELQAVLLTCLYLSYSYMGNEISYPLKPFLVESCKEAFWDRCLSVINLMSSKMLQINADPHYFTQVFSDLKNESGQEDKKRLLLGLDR
T2 sequence (P50613 whole entry): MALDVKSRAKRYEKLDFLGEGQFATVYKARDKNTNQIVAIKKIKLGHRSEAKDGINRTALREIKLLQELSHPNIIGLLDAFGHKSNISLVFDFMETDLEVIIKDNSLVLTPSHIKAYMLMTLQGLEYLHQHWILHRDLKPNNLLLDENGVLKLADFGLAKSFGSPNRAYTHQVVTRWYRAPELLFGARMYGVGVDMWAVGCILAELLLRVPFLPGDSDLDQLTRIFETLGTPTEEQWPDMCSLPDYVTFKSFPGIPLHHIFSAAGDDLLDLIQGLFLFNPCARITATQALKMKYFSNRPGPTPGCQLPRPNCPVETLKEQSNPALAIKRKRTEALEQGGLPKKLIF
T2 sequence (P51946 whole entry partner): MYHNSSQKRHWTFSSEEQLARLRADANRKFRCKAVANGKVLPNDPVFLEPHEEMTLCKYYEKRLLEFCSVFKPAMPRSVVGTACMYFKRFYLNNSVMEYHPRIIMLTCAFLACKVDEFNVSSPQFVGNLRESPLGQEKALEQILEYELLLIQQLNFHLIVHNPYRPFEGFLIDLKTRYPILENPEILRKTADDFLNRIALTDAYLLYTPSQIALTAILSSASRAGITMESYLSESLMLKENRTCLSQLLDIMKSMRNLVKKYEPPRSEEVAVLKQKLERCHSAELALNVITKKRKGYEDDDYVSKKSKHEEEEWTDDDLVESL
T2 sequence (P51948 whole entry partner): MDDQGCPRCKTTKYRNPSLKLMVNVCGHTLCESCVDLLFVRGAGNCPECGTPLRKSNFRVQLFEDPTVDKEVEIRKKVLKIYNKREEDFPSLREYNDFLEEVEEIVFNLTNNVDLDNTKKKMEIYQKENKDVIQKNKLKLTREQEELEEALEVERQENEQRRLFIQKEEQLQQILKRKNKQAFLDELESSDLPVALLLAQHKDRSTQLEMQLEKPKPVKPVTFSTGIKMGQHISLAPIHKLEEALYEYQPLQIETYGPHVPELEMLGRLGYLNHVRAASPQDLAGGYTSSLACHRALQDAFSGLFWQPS

| SMILES | IC50 (CDK1/Cyclin B) [nM] | IC50 (CDK7/Cyclin H/MNAT1) [nM] | CDK1/CDK7: Selectivity of CDK7 inhibition over CDK1 inhibition (CDK7/Cyclin H/MNAT1) | CDK2/CDK7: Selectivity of CDK7 inhibition over CDK2 inhibition (CDK7/Cyclin H/MNAT1) | CDK5/CDK7: Selectivity of CDK7 inhibition over CDK5 inhibition (CDK7/Cyclin H/MNAT1) | IC50 (CDK5/p25) [nM] | IC50 (CDK2/Cyclin A) [nM] | IC50 (OVCAR-3) [nM] | IC50 (A2780) [nM] |
| --- | --- | --- | --- | --- | --- | --- | --- | --- | --- |
| C=C(F)C(=O)Nc1ccc2c(-c3ccccc3CNc3nc(N[C@H]4CCCNC4)nc4c(C(C)C)cnn34)nccc2c1 [Compound 161] | > 1000 | < 100 | A (A indicates [fold] > 500) | A (A indicates [fold] > 500) | A (A indicates [fold] > 500) | > 1000 | > 1000 | < 1000 | < 1000 |
| C=CC(=O)Nc1ccc2c(-c3ccccc3CNc3nc(N[C@H]4CC[C@H](OC)CC4)nc4c(C(C)C)cnn34)nccc2c1 [Compound 95] | > 1000 | < 100 | A (A indicates [fold] > 500) | A (A indicates [fold] > 500) | A (A indicates [fold] > 500) | > 1000 | > 1000 | < 1000 | < 1000 |
| CC(C)c1cnn2c(NCc3ccccc3-c3nccc4cc(NC(=O)/C=C/CN(C)C)ccc34)nc(N3CCOC4(CCN(C)CC4)C3)nc12 [Compound 120] | > 1000 | < 100 | A (A indicates [fold] > 500) | A (A indicates [fold] > 500) | A (A indicates [fold] > 500) | > 1000 | > 1000 | < 1000 | < 1000 |
| COC1CC2CCC(C1)N2c1nc(NCc2ccccc2-c2nccc3cc(NC(=O)/C=C/CN(C)C)ccc23)n2ncc(C(C)C)c2n1 (stereo not drawn) [Compound 103] | > 1000 | < 100 | B (B indicates 50 < [fold] ≤ 500) | B (B indicates 50 < [fold] ≤ 500) | B (B indicates 50 < [fold] ≤ 500) | > 1000 | > 1000 | < 1000 | < 1000 |
| C=C(F)C(=O)Nc1ccc2c(-c3ccccc3CNc3nc(NC4CCOC4)nc4c(C(C)C)cnn34)nccc2c1 (stereo not drawn) [Compound 92] | > 1000 | 100 to 1000 | B (B indicates 50 < [fold] ≤ 500) | B (B indicates 50 < [fold] ≤ 500) | B (B indicates 50 < [fold] ≤ 500) | > 1000 | > 1000 | < 1000 | < 1000 |
| C=C(F)C(=O)Nc1ccc2c(-c3ccccc3CNc3nc(N[C@H]4CC[C@@H](OC)C4)nc4c(C(C)C)cnn34)nccc2c1 [Compound 96] | > 1000 | 100 to 1000 | B (B indicates 50 < [fold] ≤ 500) | B (B indicates 50 < [fold] ≤ 500) | B (B indicates 50 < [fold] ≤ 500) | > 1000 | > 1000 | < 1000 | < 1000 |
| C=C(F)C(=O)Nc1ccc2c(-c3ccccc3CNc3nc(NC4CCC(OC)C4)nc4c(C(C)C)cnn34)nccc2c1 (racemic) [Compound 98] | > 1000 | 100 to 1000 | B (B indicates 50 < [fold] ≤ 500) | B (B indicates 50 < [fold] ≤ 500) | B (B indicates 50 < [fold] ≤ 500) | > 1000 | > 1000 | < 1000 | < 1000 |
| C=C(F)C(=O)Nc1ccc2c(-c3ccccc3CNc3nc(NC4CCC(C)(C)NC4)nc4c(C(C)C)cnn34)nccc2c1 (stereo not drawn) [Compound 175] | > 1000 | < 100 | A (A indicates [fold] > 500) | A (A indicates [fold] > 500) | A (A indicates [fold] > 500) | > 1000 | > 1000 | < 1000 | < 1000 |
| CC(C)c1cnn2c(NCc3ccccc3-c3nccc4cc(NC(=O)/C=C/CN(C)C)ccc34)nc(N3CCC(=O)CC3)nc12 [Compound 106] | > 1000 | 100 to 1000 | C (C indicates [fold] ≤ 50) | C (C indicates [fold] ≤ 50) | C (C indicates [fold] ≤ 50) | > 1000 | > 1000 | < 1000 | < 1000 |
| C=C(F)C(=O)Nc1ccc2c(-c3ccccc3CNc3nc(N[C@@H]4CCC(C)(C)NC4)nc4c(C(C)C)cnn34)nccc2c1 [Compound 174] | > 1000 | < 100 | A (A indicates [fold] > 500) | A (A indicates [fold] > 500) | A (A indicates [fold] > 500) | > 1000 | > 1000 | < 1000 | < 1000 |
| C=C(F)C(=O)Nc1ccc2c(-c3ccccc3CNc3nc(NC4CCC(OC)C4)nc4c(C(C)C)cnn34)nccc2c1 (single isomer, unassigned) [Compound 97] | > 1000 | 100 to 1000 | B (B indicates 50 < [fold] ≤ 500) | B (B indicates 50 < [fold] ≤ 500) | B (B indicates 50 < [fold] ≤ 500) | > 1000 | > 1000 | < 1000 | < 1000 |
| C=CC(=O)Nc1ccc2c(-c3ccccc3CNc3cc(N[C@H]4CC[C@H](OC)CC4)nc4c(C(C)C)cnn34)nccc2c1 [Compound 116] | > 1000 | < 100 | A (A indicates [fold] > 500) | A (A indicates [fold] > 500) | A (A indicates [fold] > 500) | > 1000 | > 1000 | < 1000 | < 1000 |
| C=C(F)C(=O)Nc1ccc2c(-c3ccccc3CNc3nc(N[C@@H]4CC[C@@H](C)NC4)nc4c(C(C)C)cnn34)nccc2c1 [Compound 163] | > 1000 | < 100 | A (A indicates [fold] > 500) | A (A indicates [fold] > 500) | A (A indicates [fold] > 500) | > 1000 | > 1000 | < 1000 | < 1000 |
| C=C(F)C(=O)Nc1ccc2c(-c3ccccc3CNc3cc(C)nc4c(C(C)C)cnn34)nccc2c1 [Compound 156] | > 1000 | 100 to 1000 | B (B indicates 50 < [fold] ≤ 500) | B (B indicates 50 < [fold] ≤ 500) | B (B indicates 50 < [fold] ≤ 500) | > 1000 | > 1000 | 1000 to 10000 | < 1000 |
| CC(C)c1cnn2c(NCc3ccccc3-c3nccc4cc(NC(=O)/C=C/CN(C)C)ccc34)nc(N3CC4(COC4)C3)nc12 [Compound 108] | > 1000 | 100 to 1000 | C (C indicates [fold] ≤ 50) | C (C indicates [fold] ≤ 50) | C (C indicates [fold] ≤ 50) | > 1000 | > 1000 | < 1000 | < 1000 |
